# Tests used:
# [1] = Dissolution rate of granules in deionized water monitored by conductivity; type: physicochemical; details: for time needed (s) to reach 75% dissolved / time needed (s) to reach 90% dissolved / time needed (s) to reach 95% dissolved / time needed (s) to reach 100% dissolved: 1 gram granules in 75 gram deionized water, stirred, trisodium salt
# Experimental: The dissolution rate of these granules was compared to the dissolution rate of the original granules that were not heat treated:
# 1 gram of granules was added in one shot to a stirred container filled with 75 gram deionized water, equipped with a conductivity measurement probe. The conductivity of the dispersion was monitored in time. The degree of dissolution was determined by dividing the conductivity by the value finally obtained when the sample was fully dissolved yielding a stable level of conductivity.
# (The measurements were done in duplicate yielding the same result)
# [2] = Free flowability and weight gain after storage in climate chamber at 40° C. and 75% relative humidity; type: physicochemical; details: mean of three dishes; for fraction free flowing (%) Original / weight gain (%) Original: non-treated sample, stored 5 days at 40° C. and 75% relative humidity; for fraction free flowing (%) Treated / weight gain (%) Treated: sample dried 4 hours at 160° C., then stored 5 days at 40° C. and 75% relative humidity
# Experimental: The compounds obtained in Examples 1 and 3 were dried 4 hours at 160° C. Subsequently, 5 grams of each sample were distributed evenly over the bottom of a (separate) crystallization dish (diameter 10 cm) and stored for 5 days in a climate chamber at 40° C. and 75% relative humidity. As a reference also the non-treated samples, as well as a sample of Trilon M granules (Na3-MGDA solid ex BASF), were stored in the same climate chamber at the same time.
# To improve reliability of the testing, three separate dishes of all samples were stored at the same conditions.
# After five days the dishes were weighed and the gain in mass of the contents was determined.
# To estimate the amount of material that was still free flowing, the dishes were first tapped gently and then were mounted vertically to estimate the amount of material that remained sticking on the glass surface versus the amount of granular material ending on the bottom.
structure (smiles),measurement,setting,value
"CC(C(=O)[O-])N(CC(=O)[O-])CC(=O)[O-].[Na+].[Na+].[Na+] (single isomer, unassigned) [type I, methyl glycine-N,N-diacetic acid trisodium salt, reference compound]",time needed (s) to reach 75% dissolved,[1],40 s
same,time needed (s) to reach 90% dissolved,[1],110 s
same,time needed (s) to reach 95% dissolved,[1],160 s
same,time needed (s) to reach 100% dissolved,[1],260 s
"CC(C(=O)[O-])N(CC(=O)[O-])CC(=O)[O-].[Na+].[Na+].[Na+] (single isomer, unassigned) [type III, methyl glycine-N,N-diacetic acid trisodium salt]",time needed (s) to reach 75% dissolved,[1],22 s
same,time needed (s) to reach 90% dissolved,[1],36 s
same,time needed (s) to reach 95% dissolved,[1],45 s
same,time needed (s) to reach 100% dissolved,[1],90 s
same,dissolution compared to type I containing granules,"[1]; type III containing granules versus original, not heat treated type I granules",dissolve much faster
"CC(C(=O)[O-])N(CC(=O)[O-])CC(=O)[O-].[Na+].[Na+].[Na+] (centres unmarked) [Example 1, Na3-MGDA]",fraction free flowing (%) Original,[2],40%
same,weight gain (%) Original,[2],11%
same,fraction free flowing (%) Treated,[2],65%
same,weight gain (%) Treated,[2],27%
"CC(C(=O)[O-])N(CC(=O)[O-])CC(=O)[O-].[Na+].[Na+].[Na+] (centres unmarked) [Example 3, Na3-MGDA]",fraction free flowing (%) Original,[2],20%
same,weight gain (%) Original,[2],17%
same,fraction free flowing (%) Treated,[2],80%
same,weight gain (%) Treated,[2],29%

# Reference: patent publication US10829719B2, “Sodium methyl glycine-N,N-diacetic acid compound, process to prepare it and use thereof” (NOURYON CHEMICALS INTERNATIONAL B.V., priority 2017, dated 2020)
